For 31 compounds, IC50 results are on record in patent publication US20160046597A1, “RORC2 INHIBITORS AND METHODS OF USE THEREOF” (PFIZER INC., priority 2013, published 2016).

The IC50 is the midpoint of a concentration-inhibition curve. Lower therefore signals greater potency in that assay.

In the assay the target is T1, RORC2 ligand binding domain (6-His-RORC2 LBD) (Homo sapiens, UniProt P51449).
T1 construct: made in house; host or cells: E. coli
T1 sequence (P51449 269-508 limits assumed): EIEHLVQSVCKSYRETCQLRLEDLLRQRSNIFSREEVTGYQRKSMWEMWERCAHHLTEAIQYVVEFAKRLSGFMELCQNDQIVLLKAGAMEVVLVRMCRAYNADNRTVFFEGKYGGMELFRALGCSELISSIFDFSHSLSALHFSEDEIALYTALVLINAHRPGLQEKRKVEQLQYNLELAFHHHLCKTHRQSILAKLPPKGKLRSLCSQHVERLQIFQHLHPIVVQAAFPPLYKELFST
The assay can be described thus: Co-activator recruitment by TR-FRET (RORC2 FRET). The assay is classed as biochemical. The following applies: 6.3 nM RORC2 LBD, 200 nM SRC1-2 coactivator peptide, 3 hours room temperature. The text has this: The activity of compound of the invention can be determined by a co-activator recruitment by TR-FRET (time-resolved fluorescence resonance energy transfer) assay. […] Due to the long lasting fluorescence emission of Europium, the non-specific, short-lived fluorescence is time-resolved (TR) from the fluorescence of interest. Inhibitors of the interaction of receptor and coactivator peptide are detected by a decrease in TR-FRET signal.
Specifically, in one embodiment the aforementioned assay was performed as outlined below. The assay was carried out in black polystyrene, 384-well plates in a total assay volume of 50.5 μL. The assay buffer contained 50 mM TRIS-HCL pH 7.5, 1 mM NaCl, 2 mM MgCl2, 0.5 mg/mL bovine serum albumin, and 5 mM dithiothreitol.
(Time-resolved FRET reads energy transfer from a long-lived donor to a nearby acceptor.)
`Cn1cc(C2CCN(C(=O)[C@H]3CC[C@@H](O)CC3)CC2)c2cc(NC(=O)c3cc(C#N)ccn3)ccc21` [Example 29, 4-cyano-N-(3-{1-[(cis-4-hydroxycyclohexyl)carbonyl]piperidin-4-yl}-1-methyl-1H-indol-5-yl)pyridine-2-carboxamide] showed a half-inhibitory concentration (IC50) of 56.2 nM.
As for `Cn1cc(C2CCN(C(=O)CCC(F)(F)F)CC2)c2cc(NC(=O)c3cc(C#N)ccn3)ccc21` [Example 30, 4-cyano-N-{1-methyl-3-[1-(4,4,4-trifluorobutanoyl)piperidin-4-yl]-1H-indol-5-yl}pyridine-2-carboxamide], the figure is 14.3 nM; as for `Cn1cc(C2CCN(C(=O)C34CC(C3)C4)CC2)c2cc(NC(=O)c3cc(C#N)ccn3)ccc21` [Example 31, N-{3[1-(bicyclo[1.1.1]pent-1-ylcarbonyl)piperidin-4-yl]-1-methyl-1H-indol-5-yl}-4-cyanopyridine-2-carboxamide], 121 nM.
The figure for `Cn1cc(C2CCN(C(=O)C3CC3(F)F)CC2)c2cc(NC(=O)c3cc(C#N)ccn3)ccc21` (stereo not shown) [Example 32, 4-cyano-N-(3-{1-[(2,2-difluorocyclopropyl)carbonyl]piperidin-4-yl}-1-methyl-1H-indol-5-yl)pyridine-2-carboxamide] is 35.5 nM; for `Cn1cc(C2CCN(C(=O)CC3CC3)CC2)c2cc(NC(=O)c3cc(C#N)ccn3)ccc21` [Example 33, 4-cyano-N-{3-[1-(cyclopropylacetyl)piperidin-4-yl]-1-methyl-1H-indol-5-yl}pyridine-2-carboxamide] it is 7.6 nM.
Compound `COCC(=O)N1CCC(c2cn(C)c3ccc(NC(=O)c4cc(C#N)ccn4)cc23)CC1` [Example 34, 4-cyano-N-{3-[1-(methoxyacetyl)piperidin-4-yl]-1-methyl-1H-indol-5-yl}pyridine-2-carboxamide] displayed a 50% inhibitory concentration (IC50) of 100 nM.
As for `Cn1cc(C2CCN(C(=O)CC(F)(F)F)CC2)c2cc(NC(=O)c3cc(C#N)ccn3)ccc21` [Example 35, 4-cyano-N-{1-methyl-3-[1-(3,3,3-trifluoropropanoyl)piperidin-4-yl]-1H-indol-5-yl}pyridine-2-carboxamide], the figure is 21.6 nM.
As for `N#Cc1ccnc(C(=O)Nc2ccc3[nH]cc(C4CCN(C(=O)C5CCCC5)CC4)c3c2)c1` [Example 37, 4-cyano-N-(3-(1-(cyclopentanecarbonyl)piperidin-4-yl)-1H-indol-5-yl)picolinamide], the figure is 34.1 nM.
Regarding `O=C(Nc1ccc2[nH]cc(C3CCN(C(=O)C4CCCC4)CC3)c2c1)c1ccccc1F` [Example 38, N-{3-[1-(cyclopentylcarbonyl)piperidin-4-yl]-1H-indol-5-yl}-2-fluorobenzamide], the IC50 was 910 nM.
As for `COc1ccc(C#N)cc1C(=O)Nc1ccc2[nH]cc(C3CCN(C(=O)C4CCCC4)CC3)c2c1` [Example 40, 5-cyano-N-{3-[1-(cyclopentylcarbonyl)piperidin-4-yl]-1H-indol-5-yl}-2-methoxybenzamide], the figure is 380 nM.
As for `N#Cc1ccc(F)c(C(=O)Nc2ccc3[nH]cc(C4CCN(C(=O)C5CCCC5)CC4)c3c2)c1` [Example 41, 5-cyano-N-{3-[1-(cyclopentylcarbonyl)piperidin-4-yl]-1H-indol-5-yl}-2-fluorobenzamide], the figure is 327 nM; as for `COc1ccc(C(=O)Nc2ccc3[nH]cc(C4CCN(C(=O)C5CCCC5)CC4)c3c2)nc1` [Example 42, N-{3-[1-(cyclopentylcarbonyl)piperidin-4-yl]-1H-indol-5-yl}-5-methoxypyridine-2-carboxamide], 953 nM; as for `O=C(Nc1ccc2[nH]cc(C3CCN(C(=O)C4CCCC4)CC3)c2c1)c1ccc2scnc2c1` [Example 43, N-{3-[1-(cyclopentylcarbonyl)piperidin-4-yl]-1H-indol-5-yl}-1,3-benzothiazole-5-carboxamide], 1030 nM.
The figure for `O=C(Nc1ccc2[nH]cc(C3CCN(C(=O)C4CCCC4)CC3)c2c1)c1ccccc1Cl` [Example 44, 2-chloro-N-{3-[1-(cyclopentylcarbonyl)piperidin-4-yl]-1H-indol-5-yl}benzamide] is 624 nM.
`O=C(Nc1ccc2[nH]cc(C3CCN(C(=O)C4CCCC4)CC3)c2c1)c1ccc(CO)cc1` [Example 45, N-{3-[1-(cyclopentylcarbonyl)piperidin-4-yl]-1H-indol-5-yl}-4-(hydroxymethyl)benzamide]: the IC50 is 3460 nM.
Take `O=C(Nc1ccc2[nH]cc(C3CCN(C(=O)C4CCCC4)CC3)c2c1)c1cccc(O)c1` [Example 46, N-{3-[1-(cyclopentylcarbonyl)piperidin-4-yl]-1H-indol-5-yl}-3-hydroxybenzamide]: the IC50 came to 1450 nM.
`O=C(O)c1cccc(C(=O)Nc2ccc3[nH]cc(C4CCN(C(=O)C5CCCC5)CC4)c3c2)c1` [Example 48, 3-({3-[1-(cyclopentylcarbonyl)piperidin-4-yl]-1H-indol-5-yl}carbamoyl)benzoic acid] yielded a half-maximal inhibitory concentration (IC50) of 211 nM.
As for `O=C(Nc1ccc2[nH]cc(C3CCN(C(=O)C4CCCC4)CC3)c2c1)c1cccc2ncsc12` [Example 49, N-{3-[1-(cyclopentylcarbonyl)piperidin-4-yl]-1H-indol-5-yl}-1,3-benzothiazole-7-carboxamide], the figure is 1380 nM; as for `NC(=O)c1cccc(C(=O)Nc2ccc3[nH]cc(C4CCN(C(=O)C5CCCC5)CC4)c3c2)c1` [Example 50, N-{3-[1-(cyclopentylcarbonyl)piperidin-4-yl]-1H-indol-5-yl}isophthalamide], 1430 nM.
As for `O=C(Nc1ccc2[nH]cc(C3CCN(C(=O)C4CCCC4)CC3)c2c1)c1ccc2[nH]cnc2c1` [Example 51, N-{3-[1-(cyclopentylcarbonyl)piperidin-4-yl]-1H-indol-5-yl}-1H-benzimidazole-5-carboxamide], the figure is 871 nM; as for `Cn1cnc2cc(C(=O)Nc3ccc4[nH]cc(C5CCN(C(=O)C6CCCC6)CC5)c4c3)ccc21` [Example 52, N-{3-[1-(cyclopentylcarbonyl)piperidin-4-yl]-1H-indol-5-yl}-1-methyl-1H-benzimidazole-5-carboxamide], 1110 nM; as for `Cc1ncc(C(=O)Nc2ccc3[nH]cc(C4CCN(C(=O)C5CCCC5)CC4)c3c2)cc1C#N` [Example 53, 5-cyano-N-{3-[1-(cyclopentylcarbonyl)piperidin-4-yl]-1H-indol-5-yl}-6-methylnicotinamide], 124 nM.
As to `Cn1cc(C2CCN(C(=O)C3CCCC3)CC2)c2cc(NC(=O)N3CCCC(C#N)C3)ccc21` (stereo not shown) [Example 58, 3-cyano-N-(3-(1-(cyclopentanecarbonyl)piperidin-4-yl)-1-methyl-1H-indol-5-yl)piperidine-1-carboxamide], the IC50 was determined as 256 nM.
As for `CN(CCC#N)C(=O)Nc1ccc2c(c1)c(C1CCN(C(=O)C3CCCC3)CC1)cn2C` [Example 59, 1-(2-cyanoethyl)-3-{3-[1-(cyclopentylcarbonyl)piperidin-4-yl]-1-methyl-1H-indol-5-yl}-1-methylurea], the figure is 330 nM; as for `Cn1cc(C2CCN(C(=O)C3CCCC3)CC2)c2cc(NC(=O)N3CC[C@H](C#N)C3)ccc21` [Example 60, (3S)-3-cyano-N-{3-[1-(cyclopentylcarbonyl)piperidin-4-yl]-1-methyl-1H-indol-5-yl}pyrrolidine-1-carboxamide], 216 nM; as for `Cn1cc(C2CCN(C(=O)C3CCCC3)CC2)c2cc(NC(=O)N3CC(CC#N)C3)ccc21` [Example 61, 3-(cyanomethyl)-N-{3-[1-(cyclopentylcarbonyl)piperidin-4-yl]-1-methyl-1H-indol-5-yl}azetidine-1-carboxamide], 335 nM.
As for `Cn1cc(C2CCN(C(=O)C3CCCC3)CC2)c2cc(NC(=O)N3CCOC(C#N)C3)ccc21` (stereo not shown) [Example 62, 2-cyano-N-{3-[1-(cyclopentylcarbonyl)piperidin-4-yl]-1-methyl-1H-indol-5-yl}morpholine-4-carboxamide], the figure is 425 nM; as for `Cn1cc(C2CCN(C(=O)C3CCCC3)CC2)c2cc(NC(=O)N3CC(C#N)C3)ccc21` [Example 63, 3-cyano-N-{3-[1-(cyclopentylcarbonyl)piperidin-4-yl]-1-methyl-1H-indol-5-yl}azetidine-1-carboxamide], 193 nM; as for `Cn1cc(C2CCN(C(=O)C3CCCC3)CC2)c2cc(NS(=O)(=O)c3ccc(F)cc3)ccc21` [Example 64, N-(3-(1-(cyclopentylcarbonyl)piperidin-4-yl)-1-methyl-1H-indol-5-yl)-4-fluorobenzenesulfonamide], 5.8 nM.
The figure for `Cn1cc(C2CCN(C(=O)C3CCCC3)CC2)c2cc(NS(=O)(=O)c3cnc(N)nc3)ccc21` [Example 65, 2-amino-N-{3-[1-(cyclopentylcarbonyl)piperidin-4-yl]-1-methyl-1H-indol-5-yl}pyrimidine-5-sulfonamide] is 37.3 nM.
As to `Cn1cc(C2CCN(C(=O)C3CCCC3)CC2)c2cc(NS(=O)(=O)c3cccc(F)c3)ccc21` [Example 66, N-{3-[1-(cyclopentylcarbonyl)piperidin-4-yl]-1-methyl-1H-indol-5-yl}-3-fluorobenzenesulfonamide], the IC50 was 7 nM. This IC50 is about 5.3-fold lower than that of the compound before.
